Results reported in patent US9624167B2, “N-(4-hydroxy-4-methyl-cyclohexyl)-4-phenyl-benzenesulfonamides and N-(4-hydroxy-4-methyl-cyclohexyl)-4-(2-pyridyl)benzenesulfonamides and their therapeutic use” (PIMCO 2664 LIMITED, priority 2013, dated 2017).

How the values were obtained:
[1] = system: TK6 human lymphoblastoid cell line; test: GreenScreen HC cytotoxicity (propidium iodide uptake); format: cell-based
Procedure: GreenScreen HC is a mammalian cell-based assay for measuring the genotoxicity and cytotoxicity of chemical compounds and mixtures.
Cytotoxicity is measured in the GreenScreen assay alongside genotoxicity and the results of the cytotoxicity assessment are used to normalise the genotoxicity measurements as described above.
In the GreenScreen HC assay, cell viability is assessed using a propidium iodide uptake assay. Propidium iodide is an intercalating agent and a fluorescent molecule that can be used to stain cells. It is commonly used to quantitatively assess DNA content to evaluate cell viability or DNA content in cell cycle analysis and can be used to differentiate necrotic, apoptotic and normal cells (see, e.g., Dengler et al., 1995, Anticancer Drugs, Vol. 6, No. 4, pp. 522-532). Exposure to a cytotoxic compound increases the uptake of propidium iodide, which is monitored by optical absorbance and is proportional to […]. Cytotoxic compounds are those that show an observed decrease in relative population survival below a significance threshold set at 90% compared to vehicle-treated control, at one or more test concentrations.
A dilution series of each test compound is generated in parallel in a 96-well, black microplate with an optically clear base. A standard genotoxic compound (methyl methanesulfonate, MMS) is added as an intra-plate quality control check. The plates are analysed at 24 hour and 48 hour time points using a microplate reader, which provides measurements of light absorbance and fluorescence for cells and solutions in the microplates wells.
In addition to measurements of cell viability and genotoxicity described above, the GreenScreen assay incorporates an assessment of the effects of metabolic activation in the assay, the “GreenScreen HC S9 assay”. To accomplish this, the cells are incubated both in the presence of and absence of the post-mitochondrial supernatant liver extract (known as “S9”). S9 is routinely used in genetic toxicology to supplement the test cells with mammalian phase I metabolism. To assess metabolic activation, compounds are incubated with the TK6 strain in the presence of 1% v/v S9 fraction mix for 3 hours with a subsequent 45 hour recovery time. After the recovery period, the GFP fluorescence signal and cell viability (assessed by propidium iodide uptake) are measured using a flow cytometer. Cyclophosphamide, a commonly used control in genotoxicity studies utilising metabolic activation, is used as the positive control in the assay. In the GreenScreen HC S9 assay, genotoxicity is evaluated by induction in GFP expression quantified using the mean sample fluorescence and cytotoxicity using the propidium iodide uptake assay described above. The statistically defined threshold for a positive genotoxicity result is 1.3, i.e. 30% induction over and above the baseline for the vehicle-treated control and the result is reported as positive or negative. Cytotoxic compounds are those that show an observed decrease in relative population survival below a significance threshold set at 90% compared to vehicle-treated control, at one or more test concentrations.
Stably transfected reporter cell lines were derived from the p53-competent human lymphoblastoid TK6 cell line. The reporter cell line carries an episomally replicating plasmid bearing the upstream promoter region and other regulatory sequences of the human GADD45a gene linked to a human optimised Green Fluorescent Protein (GFP) gene. The control cell line carries an identical plasmid except for the removal of 4 base pairs at the start of the EGFP gene, such that GFP is not produced. Both plasmids also carry a gene conferring resistance to hygromycin B to the cell line, allowing continued selection for plasmid presence (200 μg/mL hygromycin B; Invitrogen Corporation, Carlsbad, Calif.). […]

hERG = target: T1, hERG (Homo sapiens, UniProt Q12809); test: hERG Ion Channel Assay (Q-patch, hERG-CHO cells); format: cell-based; conditions: human, CHO cells stably transfected with hERG (hERG-CHO), pH 7.4, 30 μM
T1 construct: expressed in transfected cells; host or cells: Chinese Hamster Ovary cells (hERG-CHO), stably transfected
Procedure: The activity of the compounds against the hERG ion channel was tested. The assay was conducted using the automated path-clamp, Q-patch method using stably transfected Chinese Hamster Ovary cells (hERG-CHO). hERG-CHO cells were cultured in F-12 Kaighn's Nutrient Mixture medium (Invitrogen)+10% FBS at 37° C. for 1-3 days. Cells were kept at 30° C. for 24 to 48 hours prior to patch clamping in order to increase the hERG current amplitude. Subsequently, the cells were harvested by trypsinisation, and kept in Serum Free Medium (SFM) in the Q-patch cell preparation state for up to 6 hours at room temperature before being washed and re-suspended in extracellular solution and applied to the patch clamp sites for data recording.
Patch-clamp voltage protocol: After whole cell configuration was achieved, the cell was held at −80 mV. A 50 millisecond pulse to −40 mV was delivered to measure the leaking current, which was subtracted from the tail current on-line. Then the cell was depolarized to +20 mV for 2 seconds, followed by a one second pulse to −40 mV to reveal hERG tail current. This paradigm was delivered once every 5 seconds to monitor the current amplitude.
Extracellular solution: 137 mM NaCl, 4 mM KCl, 1.8 mM CaCl2, 1 mM MgCl2, 10 mM D(+)-glucose, 10 mM HePES buffer (pH adjusted to 7.4 with NaOH).
After the whole cell configuration was achieved, the extracellular solution (control) was applied first and the cell was stabilized for 2 minutes in extracellular solution. The test compound was then applied from low concentrations to high concentrations cumulatively. The cell was incubated with each test concentration for 5 minutes. During each incubation, the cell was repetitively stimulated using the voltage protocol described above, and the tail current amplitude was continuously monitored.
• (1) Peak tail current >100 pA in control. • (2) Initial run-down <30% and the run-down stops before first application of the test compound. • (3) Leak currents <50% of the control peak tail currents at any time. • (4) rs<20 MΩ throughout the experiment.
The degree of inhibition (%) was obtained by measuring the tail current amplitude, induced by a one second test pulse to −40 mV after a two second pulse to +20 mV, before and after incubation with the test compound. The difference in current was normalized to control and multiplied by 100 in order to obtain the percent inhibition.
Concentration (log) response curves were fitted to a logistic equation (three parameters assuming complete block of the current at very high test compound concentrations) to generate estimates of the 50% inhibitory concentration (IC50). The concentration-response relationship of each compound was constructed from the percentage reductions of current amplitude by sequential concentrations.

[2] = lowest effective concentration for loss of cell viability

T1 sequence (Q12809 whole entry): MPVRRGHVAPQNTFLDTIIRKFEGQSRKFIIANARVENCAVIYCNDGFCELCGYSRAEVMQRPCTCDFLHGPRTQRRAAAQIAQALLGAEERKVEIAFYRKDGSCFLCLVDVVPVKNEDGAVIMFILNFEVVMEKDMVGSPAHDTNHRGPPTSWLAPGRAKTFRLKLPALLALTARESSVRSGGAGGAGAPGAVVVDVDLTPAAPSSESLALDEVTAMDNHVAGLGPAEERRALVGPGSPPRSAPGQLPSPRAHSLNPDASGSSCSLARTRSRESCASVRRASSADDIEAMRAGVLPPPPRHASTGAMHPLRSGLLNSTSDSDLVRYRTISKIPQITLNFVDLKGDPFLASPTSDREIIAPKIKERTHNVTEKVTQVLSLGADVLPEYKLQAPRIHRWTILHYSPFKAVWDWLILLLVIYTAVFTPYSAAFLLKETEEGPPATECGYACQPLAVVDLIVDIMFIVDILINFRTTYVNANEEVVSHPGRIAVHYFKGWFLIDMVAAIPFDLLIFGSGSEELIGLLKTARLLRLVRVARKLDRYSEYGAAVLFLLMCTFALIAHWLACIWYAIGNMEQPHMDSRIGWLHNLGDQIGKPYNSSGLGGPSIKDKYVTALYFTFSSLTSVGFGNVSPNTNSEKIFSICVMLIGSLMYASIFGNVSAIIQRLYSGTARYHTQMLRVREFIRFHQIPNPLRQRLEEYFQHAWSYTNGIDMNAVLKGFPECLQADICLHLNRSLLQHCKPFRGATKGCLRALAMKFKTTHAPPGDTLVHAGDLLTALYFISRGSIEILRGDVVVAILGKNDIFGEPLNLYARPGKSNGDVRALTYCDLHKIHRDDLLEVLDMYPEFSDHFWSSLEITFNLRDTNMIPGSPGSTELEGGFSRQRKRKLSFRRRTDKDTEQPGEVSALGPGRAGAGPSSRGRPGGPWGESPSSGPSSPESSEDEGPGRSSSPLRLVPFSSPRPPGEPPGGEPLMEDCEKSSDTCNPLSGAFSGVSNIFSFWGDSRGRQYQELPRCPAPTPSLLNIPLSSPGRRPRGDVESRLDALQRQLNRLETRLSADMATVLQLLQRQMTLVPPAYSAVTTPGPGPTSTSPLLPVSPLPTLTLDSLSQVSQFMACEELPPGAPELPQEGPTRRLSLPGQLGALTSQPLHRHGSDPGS

SMILES	Cytotoxicity, LEC, 48 h, −S9 ([1]; absence of S9 fraction) [µM]	Cytotoxicity, LEC, 48 h, +S9 ([1]; presence of S9 fraction) [µM]	Cytotoxicity, LEC, 24 h [1, 2] [µM]	inhibition at 5 min, 30 µM (hERG; hERG tail current) [%]	other results
Cc1cc(S(=O)(=O)NC2CCC(C)(O)CC2)ccc1-c1ccc(F)cc1F (single isomer, unassigned) [REF001, reference compound]	0.039	0.63	0.039	60	
Cc1cc(S(=O)(=O)N[C@H]2CC[C@H](O)CC2)ccc1-c1ccc(F)cc1F [ABD735]	0.31	5	0.31	62.5	
O=S(=O)(N[C@H]1CC[C@H](O)CC1)c1ccc(-c2ncc(Cl)cc2Cl)cc1 [ABD836, reference compound]	0.01	40	0.04	50	
C[C@]1(O)CC[C@@H](NS(=O)(=O)c2ccc(-c3ccc(F)cc3F)cc2)CC1 [ABD899, reference compound]					Cytotoxicity, LEC, 24 h ([1]; lab scale batch tested in the range 1.3 mM to 0.3 pM): <0.001 µM; Cytotoxicity, LEC, 24 h ([1]; mid scale batch tested in the range 164 μM to 0.003 μM): 0.64 µM; Cytotoxicity, LEC, 48 h, +S9 ([1]; +S9, lab scale batch, 1.3 mM to 0.3 pM): 0.32 µM; Cytotoxicity, LEC, 48 h, +S9 ([1]; +S9, mid scale batch, 164 μM to 0.003 μM): 81.9 µM; Cytotoxicity, LEC, 48 h, −S9 ([1]; −S9, lab scale batch, 1.3 mM to 0.3 pM): <0.001 µM; Cytotoxicity, LEC, 48 h, −S9 ([1]; −S9, mid scale batch, 164 μM to 0.003 μM): 0.08 µM; inhibition at 5 min, 30 µM (hERG; a lab-scale batch was tested): 100%; inhibition at 5 min, 30 µM (hERG; a mid-scale batch was tested): 53%
C[C@]1(O)CC[C@H](NS(=O)(=O)c2ccc(-c3ccc(F)cc3F)cc2)CC1 [ABD900, reference compound]	0.07	74.1	0.29	51	
C[C@]1(O)CC[C@H](NS(=O)(=O)c2ccc(-c3ccc(Cl)cc3C#N)cc2)CC1 [HMC-C-01-A, 4′-Chloro-2′-cyano-N-((1r,4r)-4-hydroxy-4-methylcyclohexyl)biphenyl-4-sulfonamide]	0.12	60	0.47	79	
C[C@]1(O)CC[C@@H](NS(=O)(=O)c2ccc(-c3ccc(Cl)cc3C#N)cc2)CC1 [HMC-C-01-B, 4′-Chloro-2′-cyano-N-((1s,4s)-4-hydroxy-4-methylcyclohexyl)-[1,1′-biphenyl]-4-sulfonamide]	0.005	4.82	0.08	74	
C[C@]1(O)CC[C@H](NS(=O)(=O)c2ccc(-c3ccc(F)cc3C(F)(F)F)cc2)CC1 [HMC-C-02-A, 4′-Fluoro-N-((1r,4r)-4-hydroxy-4-methylcyclohexyl)-2′-(trifluoromethyl)biphenyl-4-sulfonamide]	60	120	>1000	57	
C[C@]1(O)CC[C@@H](NS(=O)(=O)c2ccc(-c3ccc(F)cc3C(F)(F)F)cc2)CC1 [HMC-C-02-B, 4′-Fluoro-N-((1s,4s)-4-hydroxy-4-methylcyclohexyl)-2′-(trifluoromethyl)-[1,1′-biphenyl]-4-sulfonamide]				94	
C[C@]1(O)CC[C@H](NS(=O)(=O)c2ccc(-c3c(F)cc(F)cc3F)cc2)CC1 [HMC-C-03-A, 2′,4′,6′-Trifluoro-N-((1r,4r)-4-hydroxy-4-methylcyclohexyl)biphenyl-4-sulfonamide]	0.06	15	0.24	45	
C[C@]1(O)CC[C@@H](NS(=O)(=O)c2ccc(-c3c(F)cc(F)cc3F)cc2)CC1 [HMC-C-03-B, 2′,4′,6′-Trifluoro-N-((1s,4s)-4-hydroxy-4-methylcyclohexyl)-[1,1′-biphenyl]-4-sulfonamide]	0.08	10.8	0.17	36	
C[C@]1(O)CC[C@H](NS(=O)(=O)c2ccc(-c3ccc(F)cc3F)c(F)c2)CC1 [HMC-C-04-A, 2,2′,4′-Trifluoro-N-((1r,4r)-4-hydroxy-4-methylcyclohexyl)-[1,1′-biphenyl]-4-sulfonamide]				69	
C[C@]1(O)CC[C@H](NS(=O)(=O)c2ccc(-c3ncc(F)cc3F)c(F)c2)CC1 [HMC-N-01-A, 4-(3,5-Difluoropyridin-2-yl)-3-fluoro-N-((1r,4r)-4-hydroxy-4-methylcyclohexyl)benzenesulfonamide]	0.12	60	0.94	2	
C[C@]1(O)CC[C@@H](NS(=O)(=O)c2ccc(-c3ncc(F)cc3F)c(F)c2)CC1 [HMC-N-01-B, 4-(3,5-Difluoropyridin-2-yl)-3-fluoro-N-((1s,4s)-4-hydroxy-4-methylcyclohexyl)benzenesulfonamide]	0.05	5.85	0.01	27	
C[C@]1(O)CC[C@H](NS(=O)(=O)c2ccc(-c3ncc(F)cc3F)cc2)CC1 [HMC-N-02-A, 4-(3,5-Difluoropyridin-2-yl)-N-((1r,4r)-4-hydroxy-4-methylcyclohexyl)benzenesulfonamide]	0.47	120	0.94	31	
C[C@]1(O)CC[C@@H](NS(=O)(=O)c2ccc(-c3ncc(Cl)cc3Cl)cc2)CC1 [HMC-N-03-B, 4-(3,5-Dichloropyridin-2-yl)-N-((1s,4s)-4-hydroxy-4-methylcyclohexyl)benzenesulfonamide]				47	
